The values that follow come from ChEMBL document CHEMBL1133531, “Carbonic anhydrase inhibitors: perfluoroalkyl/aryl-substituted derivatives of aromatic/heterocyclic sulfonamides as topical intraocular pressure-lowering agents with prolonged duration of action” (J Med Chem, 2000).

Test [1] has as its target Carbonic anhydrase 1 (Homo sapiens, UniProt P00915).
Description: Inhibition of human recombinant carbonic anhydrase I (CA1)
For test [2], the target named is T1, Carbonic anhydrase 4 (Bos taurus, UniProt Q95323).
T1 sequence (Q95323 whole entry): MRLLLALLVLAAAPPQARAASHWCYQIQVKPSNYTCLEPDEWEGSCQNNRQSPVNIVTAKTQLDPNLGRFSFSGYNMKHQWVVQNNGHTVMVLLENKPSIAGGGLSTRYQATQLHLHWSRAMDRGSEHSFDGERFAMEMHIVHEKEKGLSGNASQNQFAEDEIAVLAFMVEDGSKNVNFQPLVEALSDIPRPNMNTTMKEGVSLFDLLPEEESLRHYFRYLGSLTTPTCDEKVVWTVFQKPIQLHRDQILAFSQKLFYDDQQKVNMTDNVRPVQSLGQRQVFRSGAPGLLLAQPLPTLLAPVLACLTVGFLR
Description: Inhibition of bovine carbonic anhydrase IV (CA4) from bovine lung microsomes

Carbonic anhydrase 1, sequence (P00915 whole entry): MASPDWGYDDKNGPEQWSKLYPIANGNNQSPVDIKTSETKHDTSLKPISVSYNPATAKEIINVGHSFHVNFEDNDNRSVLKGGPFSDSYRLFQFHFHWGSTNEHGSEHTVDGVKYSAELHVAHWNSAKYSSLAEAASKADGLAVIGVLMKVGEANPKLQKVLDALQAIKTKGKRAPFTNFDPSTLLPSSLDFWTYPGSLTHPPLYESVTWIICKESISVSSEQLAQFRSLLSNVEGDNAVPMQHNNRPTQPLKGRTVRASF

Consider `NS(=O)(=O)c1ccc(NNC(=O)C(F)(F)C(F)(F)C(F)(F)C(F)(F)C(F)(F)C(F)(F)C(F)(F)C(F)(F)F)cc1`, for which the values for the Ki in test [1] and in test [2] were 1850 nM and 840 nM, respectively.

Turning to `NS(=O)(=O)c1ccc(NS(=O)(=O)C(F)(F)F)c(Br)c1`, the Ki in test [1] came out at 200000 nM; in test [2] it was 47000 nM.

Consider `NS(=O)(=O)c1ccccc1NC(=O)C(F)(F)C(F)(F)C(F)(F)C(F)(F)C(F)(F)C(F)(F)C(F)(F)C(F)(F)F`, for which the figures for the Ki in test [1] and in test [2] were 1800 nM and 1500 nM, respectively.

`Cn1nc(S(N)(=O)=O)s/c1=N/S(=O)(=O)c1ccc(NC(=O)C(F)(F)C(F)(F)C(F)(F)C(F)(F)C(F)(F)C(F)(F)C(F)(F)C(F)(F)F)cc1`: the inhibition constant Ki stood at 900 nM in test [1] and 12 nM in test [2].

Regarding `NS(=O)(=O)c1ccc(CNS(=O)(=O)C(F)(F)F)cc1`, the values for the Ki in test [1] and in test [2] were 138000 nM and 24500 nM, respectively.

As to `NS(=O)(=O)c1ccc(NC(=O)c2c(F)c(F)c(F)c(F)c2F)c(Br)c1`, the Ki was 1870 nM in test [1] and 865 nM in test [2].

In the case of `NS(=O)(=O)c1ccc(Nc2ccnc(NS(=O)(=O)C(F)(F)F)n2)cc1`, the Ki in test [1] was determined as 8000 nM; in test [2] it was 39 nM.

Consider `NS(=O)(=O)c1nnc(NS(=O)(=O)c2ccc(NS(=O)(=O)C(F)(F)F)cc2)s1`, for which the results for the Ki in test [1] and in test [2] were 1000 nM and 25 nM, respectively.

For `NS(=O)(=O)c1ccc(NS(=O)(=O)C(F)(F)C(F)(F)C(F)(F)C(F)(F)C(F)(F)C(F)(F)C(F)(F)C(F)(F)F)c(Cl)c1`, the Ki in test [1] turned out to be 2480 nM; in test [2], 10300 nM.

As to `NS(=O)(=O)c1nc2ccc(OCCOC(=O)C(F)(F)C(F)(F)C(F)(F)C(F)(F)C(F)(F)C(F)(F)C(F)(F)C(F)(F)F)cc2s1`, the Ki came out at 24 nM in test [1] and 7 nM in test [2].

Take `NS(=O)(=O)c1ccc(NS(=O)(=O)c2ccc(NC(=O)c3c(F)c(F)c(F)c(F)c3F)cc2)cc1`: the Ki was 6600 nM in test [1] and 39 nM in test [2].

Take `NS(=O)(=O)c1ccc(COC(=O)c2c(F)c(F)c(F)c(F)c2F)cc1`: the values for the inhibition constant (Ki) in test [1] and in test [2] were 1200 nM and 410 nM, respectively.

As to `NS(=O)(=O)c1nnc(NS(=O)(=O)c2ccc(NC(=O)c3c(F)c(F)c(F)c(F)c3F)cc2)s1`, the Ki was found to be 1500 nM in test [1] and 32 nM in test [2].

For `NS(=O)(=O)c1ccc(NC(=O)C(F)(F)C(F)(F)C(F)(F)C(F)(F)C(F)(F)C(F)(F)C(F)(F)C(F)(F)F)c(F)c1`, the figures for the Ki in test [1] and in test [2] were 1400 nM and 550 nM, respectively.

Consider `NS(=O)(=O)c1cccc(NS(=O)(=O)c2ccc(NC(=O)C(F)(F)C(F)(F)C(F)(F)C(F)(F)C(F)(F)C(F)(F)C(F)(F)C(F)(F)F)cc2)c1`, for which the Ki in test [1] was found to be 3000 nM; in test [2], 30 nM.

Take `NS(=O)(=O)c1ccc(NS(=O)(=O)c2c(F)c(F)c(F)c(F)c2F)c(F)c1`: the results for the Ki in test [1] and in test [2] were 710 nM and 140 nM, respectively.

Consider `NS(=O)(=O)c1nc2ccc(OCCOS(=O)(=O)C(F)(F)C(F)(F)C(F)(F)C(F)(F)F)cc2s1`, for which the Ki in test [1] turned out to be 19 nM; in test [2], 6 nM.

Consider `NS(=O)(=O)c1cc(S(N)(=O)=O)c(NC(=O)c2c(F)c(F)c(F)c(F)c2F)c(Cl)c1Cl`, for which the Ki in test [1] was 1900 nM; in test [2], 420 nM.

Take `NS(=O)(=O)c1ccc(NC(=O)C(F)(F)C(F)(F)C(F)(F)C(F)(F)C(F)(F)C(F)(F)C(F)(F)C(F)(F)F)c(Br)c1`: the Ki in test [1] was found to be 2500 nM; in test [2], 620 nM.

`NS(=O)(=O)c1nnc(NS(=O)(=O)C(F)(F)F)s1`: the inhibition constant (Ki) in test [1] came out at 59800 nM; in test [2], 600 nM.

In the case of `Cn1nc(S(N)(=O)=O)s/c1=N/S(=O)(=O)c1ccc(NC(=O)c2c(F)c(F)c(F)c(F)c2F)cc1`, the affinity in test [1], expressed as Ki, was 1600 nM.

On to `NS(=O)(=O)c1cc(S(N)(=O)=O)c(NC(=O)c2c(F)c(F)c(F)c(F)c2F)cc1Cl`, for which the Ki in test [1] is 750 nM; in test [2], 54 nM.

In the case of `NS(=O)(=O)c1nc2ccc(NS(=O)(=O)C(F)(F)F)cc2s1`, the Ki came to 70 nM in test [1] and 8 nM in test [2].

Take `NS(=O)(=O)c1ccc(NS(=O)(=O)c2c(F)c(F)c(F)c(F)c2F)c(Br)c1`: the Ki stood at 1500 nM in test [1] and 550 nM in test [2].

Take `Cn1nc(S(N)(=O)=O)s/c1=N/C(=O)C(F)(F)C(F)(F)C(F)(F)C(F)(F)C(F)(F)C(F)(F)C(F)(F)C(F)(F)F`: the Ki in test [1] turned out to be 330 nM; in test [2] it was 18 nM.

On to `NS(=O)(=O)c1ccc(CCOC(=O)C(F)(F)C(F)(F)C(F)(F)C(F)(F)C(F)(F)C(F)(F)C(F)(F)C(F)(F)F)cc1`, for which the Ki is 20000 nM in test [1] and 12000 nM in test [2].

For the molecule `NS(=O)(=O)c1nnc(NC(=O)CCNS(=O)(=O)C(F)(F)C(F)(F)C(F)(F)C(F)(F)C(F)(F)C(F)(F)C(F)(F)C(F)(F)F)s1`, the Ki in test [1] was 300 nM; in test [2], 9 nM.

For the molecule `Cn1nc(S(N)(=O)=O)sc1=NS(=O)(=O)C(F)(F)C(F)(F)C(F)(F)C(F)(F)C(F)(F)C(F)(F)C(F)(F)C(F)(F)F`, the Ki in test [1] is 380 nM; in test [2], 14 nM.

Consider `NS(=O)(=O)c1ccc(CCNC(=O)c2c(F)c(F)c(F)c(F)c2F)cc1`, for which the values for the Ki in test [1] and in test [2] were 900 nM and 310 nM, respectively.

Consider `NS(=O)(=O)c1ccc(NS(=O)(=O)c2ccc(NS(=O)(=O)C(F)(F)C(F)(F)C(F)(F)C(F)(F)F)cc2)cc1`, for which the values for the Ki in test [1] and in test [2] were 3600 nM and 31 nM, respectively.

As for `NS(=O)(=O)c1nc2ccc(OS(=O)(=O)C(F)(F)C(F)(F)C(F)(F)C(F)(F)C(F)(F)C(F)(F)C(F)(F)C(F)(F)F)cc2s1`, the Ki in test [1] came out at 28 nM; in test [2] it was 8 nM.

As to `NS(=O)(=O)c1cc(S(N)(=O)=O)c(NS(=O)(=O)C(F)(F)C(F)(F)C(F)(F)C(F)(F)C(F)(F)C(F)(F)C(F)(F)C(F)(F)F)c(Cl)c1Cl`, the values for the Ki in test [1] and in test [2] were 8000 nM and 765 nM, respectively.

Consider `NS(=O)(=O)c1ccc(NS(=O)(=O)c2ccc(NS(=O)(=O)C(F)(F)C(F)(F)C(F)(F)C(F)(F)C(F)(F)C(F)(F)C(F)(F)C(F)(F)F)cc2)cc1`, for which the inhibition constant Ki is 3000 nM in test [1] and 29 nM in test [2].

On to `NS(=O)(=O)c1ccc(CCOS(=O)(=O)C(F)(F)C(F)(F)C(F)(F)C(F)(F)C(F)(F)C(F)(F)C(F)(F)C(F)(F)F)cc1`, for which the Ki in test [1] came to 22000 nM; in test [2], 12300 nM.

With `NS(=O)(=O)c1ccc(COS(=O)(=O)C(F)(F)C(F)(F)C(F)(F)C(F)(F)C(F)(F)C(F)(F)C(F)(F)C(F)(F)F)cc1`, the Ki in test [1] is 15000 nM; in test [2], 10900 nM.

With `NS(=O)(=O)c1ccc(CCNS(=O)(=O)C(F)(F)C(F)(F)C(F)(F)C(F)(F)F)cc1`, the inhibition constant (Ki) in test [1] is 12500 nM; in test [2], 240 nM.

Turning to `NS(=O)(=O)c1ccc(NS(=O)(=O)c2ccc(NS(=O)(=O)C(F)(F)F)cc2)cc1`, the Ki was determined as 4000 nM in test [1] and 40 nM in test [2].

`NS(=O)(=O)c1ccc(NS(=O)(=O)C(F)(F)C(F)(F)C(F)(F)C(F)(F)F)c(Br)c1`: the figures for the inhibition constant (Ki) in test [1] and in test [2] were 20300 nM and 900 nM, respectively.

With `NS(=O)(=O)c1cc(S(N)(=O)=O)c(NC(=O)C(F)(F)C(F)(F)C(F)(F)C(F)(F)C(F)(F)C(F)(F)C(F)(F)C(F)(F)F)c(Cl)c1Cl`, the Ki in test [1] stood at 7000 nM; in test [2], 830 nM.

With `NS(=O)(=O)c1cc(S(N)(=O)=O)c(NS(=O)(=O)C(F)(F)C(F)(F)C(F)(F)C(F)(F)C(F)(F)C(F)(F)C(F)(F)C(F)(F)F)cc1Cl`, the Ki in test [1] amounted to 890 nM; in test [2] it was 155 nM.

By Ki is commonly meant the equilibrium dissociation constant of an inhibitor or competing ligand from its target. A low value points to higher affinity.
